From US8466311B2, “Neuroprotective compositions and methods” (Sanford-Burnham Medical Research Institute, priority 2006, dated 2013)

Columns and labels:
[1] = biological target: T1, bovine serum albumin (BSA) (Bos taurus, UniProt P02769); experiment: Adduct formation with free cysteine of BSA (streptavidin blot); format: binding; conditions: NEM pretreatment
T1 construct: purchased WAKO Chemicals Inc. (Tokyo, Japan) or Sigma (St. Louis, Mo.)
Experimental: We tested whether the free cysteine of bovine serum albumin (BSA) could form an adduct with NEPP compounds. If carbon #11 on the NEPP compounds binds to this free cysteine of BSA, then pretreatment with N-ethylmaleimide (NEM), in irreversible thiol alkylating agent, would abolish this binding. […] With streptavidin as a probe, we could then detect proteins bound to NEPP6-biotin. In order to study thiols as targets of NEPP binding, BSA (1 μg per lane) was incubated with various concentrations (0-1000 μM) of N-ethylmaleimide (NEM) for 30 minutes at room temperature. Vehicle or NEPP6-biotin (10 μM) in phosphate-buffered saline (PBS) was added and the mixture was incubated at room temperature for 5 h, subjected to sodium dodecyl sulfate polyacrylamide gel electrophoresis (SDS-PAGE), and probed with peroxidase-conjugated streptavidin. The gel was also stained with Coomassie brilliant blue.

[2] = test system: ARE; experiment: ARE luciferase reporter in cortical cultures; format: cell-based, rat
Experimental: Cortical cultures (E17, DIV21) were transfected with ARE-luciferase reporter gene DNA (1 μg/well) and co-transfected with pEF6 or pEFNrf2DN. CA (3 μM) or vehicle was then added to the cultures. After a 24-h incubation, cell lysates were used for luciferase reporter gene assays. Values are mean±SEM; *p<0.01 by ANOVA.
Next, transcriptional activation of the HO-1 promoter by NEPP was examined by reporter gene assays in primary neurons. Cortical cultures were transfected with reporter cDNAs (1 μg per well), and 0.7 μM NEPP11 was added to the cultures. After a 24 h incubation, cell lysates were subjected to luciferase reporter assays. […] If the Keap1/Nrf2 pathway, indeed, mediates activation of the HO-1 promoter by NEPP11, mutant Nrf2 protein should inhibit this activation. […] Moreover, the selective activation in neurons may explain the relatively small amplitude of total HO-1 activation seen in the mixed neuronal/glial culture system in which glia predominate.
Transient transfection and measurement of luciferase activity. PC12h cells or cerebrocortical cultures (E17, DIV21) were incubated for 5 h in EBSS containing 1 μg of a plasmid DNA plus Lipofectamine 2000 (Invitrogen, Carlsbad, Calif.). Transfection efficiency was normalized to β-galactosidase activity expressed by co-transfection with pSV-β-gal (Promega). For reporter gene assays, cells were transfected with 1 μg of the reporter construct [ARE(GSTYa)-luciferase] and 0.2 μg pSV-β-gal for 1 hour. The cells were then washed in PBS alone and incubated in the culture medium for another 24 h with or without CA. Firefly luciferase activity and β-galactosidase activity in cell lysates were measured using a Luciferase System and β-Galactosidase Enzyme Assay System, respectively (Promega, Madison, Wis.).
To confirm that CA activated the ARE in these cortical cultures, we performed luciferase reporter gene assays. […] CA accumulates both in neurons and in non-neuronal cells (FIG. 5).

[3] = test system: cerebrocortical neurons; experiment: NMDA-induced neuronal cell death (excitotoxicity) in cerebrocortical cultures
Experimental: We stained the cultures with both anti-MAP-2 and anti-NeuN monoclonal antibodies to label neuronal dendrites and nuclei, respectively. Vehicle or NEPP11 (0.7 μM) was added to cerebrocortical cultures (E17 and DIV14-21) 60 min before treatment with NMDA (50 μM) for 15 min. The cultures were then incubated for 20 h and subsequently stained with anti-MAP-2 and anti-NeuN and with Hoechst dye. Apoptotic nuclei were identified by morphological changes seen with Hoechst staining. […] We also added zinc protoporphyrin (ZnPP, 10 μM), a relatively specific HO-1 antagonist, simultaneously with NEPP11. The number of apoptotic neurons was assessed by determining the apoptotic index [(number of condensed nuclei in MAP-2 or NeuN-positive cells)/(number of total MAP-2 or NeuN-positive cells)×100%], as reported by Bonfoco et al. (Proc. Natl. Acad. Sci. USA 92:7162-7166, 1995).
Cerebrocortical cultures were prepared from embryonic day-17 Sprague-Dawley rats and used at day 14-21 in vitro (DIV14-21), as described (Bonfoco et al., Proc. Natl. Acad. Sci. USA 92:7162-7166, 1995). To induce predominantly neuronal apoptosis (rather than necrosis), we exposed cortical cultures to 50 mM NMDA plus 5 mM glycine/1.8 mM CaCl2 in nominally Mg^2+-free Earle's balanced salt solution for 15 min (Bonfoco et al., Proc. Natl. Acad. Sci. USA 92:7162-7166, 1995). After exposure to NMDA, the cultures were returned to normal medium containing vehicle or NEPP11 and incubated for 20 hr before analyzing cell survival. To assess the ability of NEPP compounds to block NMDA-induced neuronal apoptosis, we identified apoptotic neurons by double immunofluorescence with anti-NeuN and anti-MAP-2 to specifically label neurons and with Hoechst staining for nuclear morphology to detect apoptosis. The percentage of neurons and non-neuronal cells in our cultures was 33.6±4.9% and 66.4±4.4% (n=4), respectively.
In addition, we used mature cortical cultures (E17, DIV21) to assess excitotoxicity because functional NMDA receptors are expressed on these neurons.

[4] = test system: neural cells; experiment: Neuroprotection and toxicity of CA in vitro (summary statements); format: cell-based
[5] = Translocation of CA into the brain (HPLC of serum and brain); format: in vivo, mouse
Experimental: Translocation of CA into the brain detected by high-performance liquid chromatography (HPLC). For experiments testing penetration of drug into the CNS, we used adult male C57BL/6 mice (Charles River) weighing 22-26 g. The mice were kept in cages with ad libitum access to food and water under standardized housing conditions (natural light-dark cycle, temperature of 23±3° C., relative humidity of 50±10%). After a seven-day adaptation to laboratory conditions, the animals were randomly assigned to each experimental group (n=10 mice each). Four C57 BL/6 mice, fastened for 18 h, were each orally administered 3 mg of CA in 0.3 ml olive oil. One and three h after the injection, under ether anesthesia, serum and brain were isolated for chemical analysis. CA was extracted from tissue with acetonitrile and ethanol. CA levels were obtained by HPLC (column, μBondasphere C18; temperature, 40 C; HPLC system, Shimadzu [Kyoto, Japan] LC10Avp; detector, UV 230 nm; running solvent 2% acetic acid or acetonitrile, 30% B isocratic at 1 ml/min).
CA accumulation in the brain. For the development of CA as a protective agent against neurodegenerative diseases, penetration into the brain is an essential requirement. To examine this aspect, we administered CA orally to mice (3 mg per 25 g mouse) and measured the level of CA (catechol-form) in serum and brain parenchyma by HPLC.

[6] = test system: MCAO/reperfusion injury; experiment: Focal cerebral ischemia: MCAO/reperfusion in mice; format: in vivo, mouse
Experimental: Focal cerebral ischemia and reperfusion. The filament model of middle cerebral artery occlusion (MCAO)/reperfusion was used as described (Gu et al., Science 297:1186-1190, 2002; see Supporting Methods in Supporting Text).
NEPP11 or vehicle was injected intraperitoneally (i.p.) 1 h before and 4 h after MCAO. The area of brain infarction (corrected for possible edema) was assessed on coronal sections from vehicle- and NEPP11-treated mice stained with 2.5% 2,3,5-triphenyltetrazolium chloride 24 h after the onset of reperfusion.
Focal Cerebral Ischemia and Reperfusion. NEPP11 was injected at 100 mg/ml in a 7.5% solution of DMSO in PBS; controls received the diluent alone. The investigator was blinded as to the treatment group. The injected volume was 10 ml/g of body weight, corresponding to 1 mg/kg. […] Other physiological parameters were monitored, including systemic blood pressure, glucose, and arterial blood gasses and pH. […] Occlusion and reperfusion of blood flow were monitored by laser Doppler flowmetry. […]
After the reperfusion period, the animals were killed. […] Areas of infarction occurred in the right middle cerebral artery territory of each brain slice and were quantified with a computerized image analysis system (NIH image 1.62) as described (Gu et al., Science 297:1186-1190, 2000). […]

[7] = test system: Nrf2-GFP fusion protein; experiment: Localization of Nrf2-GFP fusion protein in transfected HT22 cells; format: cell-based; conditions: NEPP11 2 μM, 24 h
Experimental: Activation of the Keap1/Nrf2 pathway by NEPP compounds in a neuronal cell line. Next, we examined the localization of an Nrf2-Green Fluorescent Protein (GFP) fusion protein (Numazawa et al., Am. J. Physiol. 285:C334-C342, 2003) in transfected HT22 cells. HT22 cells transfected with pNrf2-GFP were treated with vehicle or NEPP11 (2 μM) for 24 h and observed under epifluorescence microscopy. […] Thus we hypothesized that nuclear levels of Nrf2 protein should increase when cells are exposed to an electrophile such as NEPP, which promotes nuclear translocation. To test this hypothesis, cytosolic and nuclear fractions (200 μg protein) from cells that had been treated with vehicle or 2 μM NEPP11 for 24 h were precipitated and probed with anti-Nrf2 antibody and with anti-NeuN, a neuronal-specific nuclear protein. Indeed, we confirmed this hypothesis.

[8] = test system: HO-1 protein; experiment: Induction of HO-1 protein in HT22 cells (Western blot); format: cell-based; conditions: 24 h, at NEPP concentration that prevented neuronal cell death
Experimental: HT22 cells (Satoh et al., Eur. J. Neurosci. 17:2249-2255, 2003; Satoh et al., J. Neurochem. 77:50-62, 2001; Sagara et al., J. Biol. Chem. 277:36204-36215, 2002) and primary cortical neurons (Bonfoco et al., Proc. Natl. Acad. Sci. USA 92:7162-7166, 1995) were cultured as described.
These assays were performed as described (Gu et al., Science 297:1186-1190, 2002) by using the following antibodies: anti-HO-1 (SPA895, 1:1000, Santa Cruz Biotechnology), anti-Keap1 (1:100, Santa Cruz Biotechnology), or anti-actin (1:5,000, Oncogene Research Products, San Diego).
Thereafter, cell lysates (10 μg per lane) were subjected to SDS-PAGE and probed with anti-HO-1 or anti-β-actin.

[9] = test system: MEF2-binding site; experiment: Enhancer element luciferase reporter p3xMEF2luc; format: cell-based; conditions: NEPP11 2 μM
Experimental: Because the E1 and E2 regions also contain other enhancer elements, we tested the effects of NEPP11 (2 μM) on the expression of luciferase activity derived from these elements, including the cAMP-responsive element (CRE; p3xCREluc), AP-1 binding site (p3xAP1luc), NF-κB binding site (p3xNF-κBluc), NFAT-binding site (p3xNFATluc), ETS-binding site (p3xETSluc), and MEF2-binding site (p3xMEF2luc).

T1 sequence (P02769 25-607): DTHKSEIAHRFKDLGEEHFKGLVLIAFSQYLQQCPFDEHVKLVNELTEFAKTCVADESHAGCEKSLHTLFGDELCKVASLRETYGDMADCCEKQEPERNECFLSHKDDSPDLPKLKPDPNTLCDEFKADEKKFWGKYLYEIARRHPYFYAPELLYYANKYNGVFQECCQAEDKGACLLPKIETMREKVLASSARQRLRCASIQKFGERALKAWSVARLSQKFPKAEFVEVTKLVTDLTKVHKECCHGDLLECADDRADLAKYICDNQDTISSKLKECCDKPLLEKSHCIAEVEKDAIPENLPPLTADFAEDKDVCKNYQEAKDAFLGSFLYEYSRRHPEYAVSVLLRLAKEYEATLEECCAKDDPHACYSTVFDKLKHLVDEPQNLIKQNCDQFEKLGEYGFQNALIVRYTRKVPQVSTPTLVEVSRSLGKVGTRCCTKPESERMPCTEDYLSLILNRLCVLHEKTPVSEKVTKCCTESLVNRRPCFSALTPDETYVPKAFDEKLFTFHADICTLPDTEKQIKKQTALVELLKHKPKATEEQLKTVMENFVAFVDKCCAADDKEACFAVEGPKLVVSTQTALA

| Compound | BSA adduct signal after pretreatment with NEM [1] | ARE activation with Nrf2-DN ([2]; 3 μM CA) | ARE-mediated transcription increase ([2]; 3 μM CA, E17 DIV21, 24 h) | viability at 3 µM ([3]; Rattus norvegicus, Cerebrocortical neuron, read-out: survival (viable cells) after NMDA) | toxicity in vitro relative to NEPP11 [4] | toxicity to neural cells ([4]; 100 μM CA) | neuroprotective concentration ([4]; as little as) | brain permeability ([5]; mouse, in vivo) | time to reach significant levels in the brain ([5]; oral, 3 mg per 25 g mouse) | infarct volume, % of the ipsilateral hemisphere ([6]; CA 1 mg/kg i.p. 1 h prior to MCAO, 2-h MCAO/24-h reperfusion, vehicle 51.2±2.4%) | localization of Nrf2-GFP [7] | HO-1 protein levels over baseline [8] | activity of the ARE core element ([2]; NEPP11 0.7 μM, 24 h) | activity of p3xMEF2luc [9] | number of apoptotic neurons ([3]; NEPP11 0.7 μM 60 min before NMDA 50 μM 15 min, 20 h) | infarct area in coronal sections ([6]; NEPP11 1 mg/kg i.p. 1 h before and 4 h after MCAO, 2 hr MCAO, 24 hr reperfusion) |
| --- | --- | --- | --- | --- | --- | --- | --- | --- | --- | --- | --- | --- | --- | --- | --- | --- |
| CC(C)c1cc2c(c(O)c1O)[C@@]1(C(=O)O)CCCC(C)(C)[C@@H]1CC2 [CA, carnosic acid] | depressed the streptavidin signal in a dose-dependent manner | abrogated by Nrf2-DN | 2.3 fold | 36 ± 2.3% | less toxic than NEPP11 | not toxic | 1-3 | brain permeable | ≤ 1 h | 34.5±3.6% | – | – | – | – | – | – |
| COC(=O)CCCCC/C=C1/C(=O)C=C[C@H]1CCCCCCc1ccc(C)cc1 [NEPP11] | – | – | – | – | – | – | – | – | – | – | translocated into the nucleus | approximately five-fold | significantly increased | no effect | significantly decreased | significantly reduced |
